Data set [1] has as its system HeLa cell line.
Method: Cytotoxicity of the compounds on mammalian cells were accomplished employing HeLa cell line (NCCS, Pune) cultured in DMEM supplemented with 10% FBS by the MTT (3-(4,5-dimethylthiazol-2-yl)-2,5-diphenyltetrazolium bromide) microenzymatic method with certain modifications [32]. Briefly, cells (10^4 cells/200 μL/well) were seeded into 96-well flat-bottom sterile tissue culture plates in complete medium. After 24 h of seeding, the test compounds at different dilutions were added and kept for another 24 h in a humidified chamber with 5% CO2 at 37 °C. Twenty microlitres of MTT (5.00 mg/mL in 1XPBS) stock solution were pipetted into each well, mixed and incubated for at least 3–4 h. After incubation, the plates were centrifuged at 1500 rpm for 5 min. The supernatant was disposed cautiously and 100 μL of DMSO were added to each well to lyse the cell and dissolve the insoluble purple formazan product into a coloured solution. Absorbance was taken at 570 nm to determine formazan formation as a measurement of cell viability. Experiments were performed in triplicate.
The test system of data set [2] is P. falciparum chloroquine resistant strain (RKL-9). Kind of data set: WHO Mark III schizont maturation inhibition assay, chloroquine resistant strain. In kind it is cell-based, Plasmodium falciparum. The conditions noted are these: for % Schizont maturation inhibition ± SD (RKL-9): Conc. = 6.25 μg/mL; for % Schizont maturation inhibition ± SD (RKL-9) / P. falciparum Chloroquine^R Strain (RKL-9) IC50 / P. falciparum Chloroquine^R Strain (RKL-9) IC90: 24 h; for Selective index (SI) P.falciparum chloroquine^R (RKL-9): SI = CC50 (HeLa)/IC50 (RKL-9); for Resistance Index (RI) IC50 (RKL-9)/IC50 (MRC-2): ratio of IC50 resistant / sensitive strain; for P. falciparum Chloroquine^R Strain (RKL-9) IC50 / P. falciparum Chloroquine^R Strain (RKL-9) IC90: schizont maturation, ring stage. As to the method:
(§1) These strains were perpetuated in vitro in continuous culture according to the method of Trager and Jensen with slight modifications. Briefly, both sensitive and resistant strains of P. falciparum were maintained in A+ erythrocytes in RPMI-1640 medium (having glutamine, but without any sodium bicarbonate) comprising 1.00 g of dextrose, 5.94 g of HEPES buffer, 40.00 mg of gentamycin. Additionally supplemented with 5% sodium bicarbonate and 10% (v/v) inactivated human AB+ serum then incubated in gas mixture of 5% CO2, 5% O2 and 90% N2 at 37 °C. Parasitized erythrocytes at initial 5% haematocrit were suspended in above mentioned culture medium and parasitaemia was regularly checked to maintain level between 2 and 4% with further sub-culturing for parasitaemia beyond 5%. Growth and multiplication of parasite was monitored by microscopy using Giemsa-stained slides.
(§2) To obtain ring stages of the parasite, the cultures were synchronized using D-sorbitol. The cultures, with majority of ring stages, were treated with equal volume of aqueous 5% D-sorbitol for 5 min and then after centrifugation pellet were suspended in complete medium and fresh erythrocytes synchronized culture with 1% parasitaemia and 5% haematocrit were used for compound concentration response assay.
(§3) The concentration of each test compound needed to hinder multiplication of parasites by 50% (IC50) against P. falciparum strains were obtained through concentration response assay performed in 96-well sterile tissue culture plates. Synchronized parasite cultures were applied to different doses of each compound. Dilutions were performed in gentamycin-free culture medium, and incubated at 37 °C having gaseous mixture (5% CO2, 5% O2 and 90% N2) supply for 24 h. The results were expressed as IC50 values computed from HN-NonLin Regression analysis, as well as mean percentage inhibition ± standard error examined by thick smear Giemsa stained slides. %ParasiteInhibition29,30=100-TotalnumberofSchizontsintestwells/TotalnumberofSchizontsincontrolwell∗100
(§4) Parasite at ring stage was used for compound concentration response assay with parasitaemia of 1% at 5% haematocrit. […] The IC50 and IC90 values of all compounds were determined and the resistance index between the two sensitive and resistant strains was calculated (Table 2). […] The percentage inhibition in schizont maturation was also calculated after incubation of ring stage P. falciparum till 24 h at the same range of drug concentrations (Table 3).

For data set [3], the system named is P. falciparum chloroquine sensitive strain (MRC-2). Kind of data set: microbe, parasite or virus in culture. The conditions noted are these: for % Schizont maturation inhibition ± SD (MRC-2): Conc. = 6.25 μg/mL; for % Schizont maturation inhibition ± SD (MRC-2) / P. falciparum Chloroquine^s Strain (MRC-2) IC50 / P. falciparum Chloroquine^s Strain (MRC-2) IC90: 24 h; for Selective index (SI) P.falciparum chloroquine^s (MRC-2): SI = CC50 (HeLa)/IC50 (MRC-2); for P. falciparum Chloroquine^s Strain (MRC-2) IC50 / P. falciparum Chloroquine^s Strain (MRC-2) IC90: schizont maturation, ring stage. On the procedure: as §1, §2, §3, §4

Consider `COc1ccc(OC)c(C(=O)C=Cc2ccc3c(c2)OCO3)c1` [Chalcone 3], for which, in data set [1], the “HeLa Cell CC50” value stood at 7.79 µg/mL. Besides, in data set [2], the “% Schizont maturation inhibition ± SD (RKL-9)” value amounted to 63.71 ± 2.83%, the “Selective index (SI) P.falciparum chloroquine^R (RKL-9)” value is 26.86, the “Resistance Index (RI) IC50 (RKL-9)/IC50 (MRC-2)” value (“Resistance Index (RI) IC50” for short) turned out to be 1.71 and the “P. falciparum Chloroquine^R Strain (RKL-9) IC50” value was determined as 0.29 µg/mL. The “P. falciparum Chloroquine^R Strain (RKL-9) IC90” value in data set [2] turned out to be 1.15 µg/mL. Besides, in data set [3], the “% Schizont maturation inhibition ± SD (MRC-2)” value came to 59.26 ± 4.95%, the “Selective index (SI) P.falciparum chloroquine^s (MRC-2)” value worked out at 45.82, the “P. falciparum Chloroquine^s Strain (MRC-2) IC50” value amounted to 0.17 µg/mL and the “P. falciparum Chloroquine^s Strain (MRC-2) IC90” value is reported as 0.75 µg/mL.
Regarding `COc1cc(C(=O)C=Cc2ccc(N(C)C)cc2)cc(OC)c1OC` [Chalcone 5], the “HeLa Cell CC50” value in data set [1] was 8.45 µg/mL. Moreover, in data set [2], the “% Schizont maturation inhibition ± SD (RKL-9)” value is reported as 40 ± 20.51%, the “Selective index (SI) P.falciparum chloroquine^R (RKL-9)” value is given as 36.74, the “Resistance Index (RI) IC50” value worked out at 1.43 and the “P. falciparum Chloroquine^R Strain (RKL-9) IC50” value is 0.23 µg/mL. For the same compound, the “P. falciparum Chloroquine^R Strain (RKL-9) IC90” value in data set [2] worked out at 0.92 µg/mL. In data set [3], the “% Schizont maturation inhibition ± SD (MRC-2)” value is listed as 58.65 ± 7.78%, the “Selective index (SI) P.falciparum chloroquine^s (MRC-2)” value stood at 52.81, the “P. falciparum Chloroquine^s Strain (MRC-2) IC50” value is listed as 0.16 µg/mL and the “P. falciparum Chloroquine^s Strain (MRC-2) IC90” value amounted to 1.08 µg/mL.
Consider `COc1cc(C(=O)C=Cc2ccc(F)cc2)cc(OC)c1OC` [Chalcone 4], for which the “HeLa Cell CC50” value in data set [1] came out at 0.84 µg/mL. In addition, in data set [2], the “% Schizont maturation inhibition ± SD (RKL-9)” value was found to be 57.69 ± 7.78%, the “Selective index (SI) P.falciparum chloroquine^R (RKL-9)” value is listed as 1.65, the “Resistance Index (RI) IC50” value was 3.40 and the “P. falciparum Chloroquine^R Strain (RKL-9) IC50” value was 0.51 µg/mL. For the same compound, the “P. falciparum Chloroquine^R Strain (RKL-9) IC90” value in data set [2] was 2.26 µg/mL. Moreover, in data set [3], the “% Schizont maturation inhibition ± SD (MRC-2)” value is 47.48 ± 17.68%, the “Selective index (SI) P.falciparum chloroquine^s (MRC-2)” value was 5.60, the “P. falciparum Chloroquine^s Strain (MRC-2) IC50” value is 0.15 µg/mL and the “P. falciparum Chloroquine^s Strain (MRC-2) IC90” value came to 0.40 µg/mL.
As for `COc1cc(C(=O)/C=C/c2ccc3c(c2)OCO3)cc(OC)c1OC` [Chalcone 8], in data set [1], the “HeLa Cell CC50” value was 2.20 µg/mL. For the same compound, in data set [2], the “% Schizont maturation inhibition ± SD (RKL-9)” value turned out to be 77.78 ± 1.41%, the “Selective index (SI) P.falciparum chloroquine^R (RKL-9)” value was determined as 8.46, the “Resistance Index (RI) IC50” value was found to be 0.90 and the “P. falciparum Chloroquine^R Strain (RKL-9) IC50” value came out at 0.26 µg/mL. Also, the “P. falciparum Chloroquine^R Strain (RKL-9) IC90” value in data set [2] is given as 5.31 µg/mL. Also, in data set [3], the “% Schizont maturation inhibition ± SD (MRC-2)” value was 75.17 ± 12.02%, the “Selective index (SI) P.falciparum chloroquine^s (MRC-2)” value is 7.59, the “P. falciparum Chloroquine^s Strain (MRC-2) IC50” value is 0.29 µg/mL and the “P. falciparum Chloroquine^s Strain (MRC-2) IC90” value came out at 1.01 µg/mL.
Consider `COc1cc(OC)c(C(=O)/C=C/c2ccc(OC)c(OC)c2)c(OC)c1` [Chalcone 1], for which the “HeLa Cell CC50” value in data set [1] came to 4.36 µg/mL. Moreover, in data set [2], the “% Schizont maturation inhibition ± SD (RKL-9)” value is 49.66 ± 25.46%, the “Selective index (SI) P.falciparum chloroquine^R (RKL-9)” value is listed as 18.96, the “Resistance Index (RI) IC50” value is 0.68 and the “P. falciparum Chloroquine^R Strain (RKL-9) IC50” value was determined as 0.23 µg/mL. In data set [2], the “P. falciparum Chloroquine^R Strain (RKL-9) IC90” value is on record as 1.42 µg/mL. In data set [3], the “% Schizont maturation inhibition ± SD (MRC-2)” value is listed as 82.43 ± 20.51%, the “Selective index (SI) P.falciparum chloroquine^s (MRC-2)” value came to 12.82, the “P. falciparum Chloroquine^s Strain (MRC-2) IC50” value was determined as 0.34 µg/mL and the “P. falciparum Chloroquine^s Strain (MRC-2) IC90” value is reported as 5.54 µg/mL.

The record behind these values is PMC6916019, “In vitro anti-malarial efficacy of chalcones: cytotoxicity profile, mechanism of action and their effect on erythrocytes” (Malaria Journal, 2019).
